Results taken from patent publication US8110654B2, “T cell epitope peptides of ovarian cancer anti-idiotypic antibody 6B11 and use thereof” (Peking University People;s Hospital, priority 2006, dated 2012).

Assays:
[1] = test system: anti-idiotype antibody 6B11-CTLs (reacting cells); assay: BrdU ELISA cell proliferation assay, 6B11-CTLs stimulated by loaded DCs; assay type: cell-based, human; details: for proliferation after blocking by MHC class II antibodies: anti-human MHC class II antibodies 1:20 dilution; for proliferation of reacting cells 6B11-CTLs: stimulating DCs loaded with peptide 30 μg/ml or 6B11 40 μg/ml, 120 hours, BrdU, A450
Protocol: Peripheral blood was drawn from HLA-A2 healthy human subjects. After EDTA anti-coagulation treatment, peripheral blood monocytes were isolated using Ficoll lymphocyte isolation 1×10^7 monocytes/well and AIM-V culture medium (containing 5% human AB serum) was added to 1 ml. The cells were incubated at 37° C. under 5% CO2 for 2 hours. Non-adherent cells were drawn and removed as lymphocytes and stored in liquid nitrogen for further use. The adherent cells were monocytes.
The monocytes isolated from said 6-well plates were added with 2 ml AIM-V culture medium (containing 5% human AB serum)/well. Recombinant human granulocyte-macrophage colony-stimulating factor (rh GM-CSF) and recombinant human interleukin-4 (rh IL-4) were added simultaneously both to a final concentration of 1000 U/ml, for induced incubation. On Day 4, 1 ml AIM-V culture medium (containing 5% human AB serum) was supplemented, and rh GM-CSF and rh IL-4 of the same concentration as mentioned above were also supplemented. On Day 6, 1 ml AIM-V culture medium (containing 5% human AB serum) was supplemented again. At the same time, recombinant human tumor necrosis factor-α (rh TNF-α), recombinant human α-interferon (rh IFN-α) and recombinant human interleukin-6 (rh IL-6) were added, all to a final concentration of 1000 U/ml, and prostaglandin E2 (PGE2) was added to a final concentration of 1 μg/ml. Co-incubation lasted 24 hours for inducing mature DCs.
On Day 4 during incubation of DCs, the culture medium, rh GM-CSF and rh IL-4 were supplemented. At the same time, anti-idiotype antibody 6B11 was added to a final concentration of 40 μg/ml for loading. The loaded cells were stored as stimulating cells for further use.
Mature DCs induced were harvested, washed and adjusted to a concentration of 1×10^6 cells/ml. Six CDR peptides (SEQ ID NOs: 1-6, see Table 1, artificially synthesized) in a final concentration of 30 μg/ml respectively, or each peptide of 30 μg/ml together with keyhole limpet hemocyanin (KLH) of 5 μg/ml were added for loading. The loaded cells were stored as stimulating cells for further use.
The freeze-stored autologous lymphocytes were stimulated by DCs loaded with anti-idiotype antibody 6B11 (anti-Id DCs), to obtain CTLs specific to anti-idiotype antibody 6B11 (6B11-CTLs). One period consists of 7 days. On Day 3 of every period, 10 U/ml recombinant human interleukin-2 (rh IL-2) was supplemented. Finally, anti-idiotype antibody 6B11-CTLs were obtained after a one- or three-period stimulation.
All the CDR peptides of anti-idiotype antibody 6B11 (6 peptides) were synthesized artificially. The peptides were screened for Th epitope peptides by cell proliferation assay. Anti-idiotype antibody 6B11-CTLs stimulated for one period were used as reacting cells. DCs loaded with anti-idiotype antibodies and peptides respectively were used as stimulating cells. The reacting cells and the stimulating cells (in the ratio of 10:1) were co-incubated at 37° C. under 5% CO2 for 120 hours and then subject to BrdU ELISA cell proliferation assay. Each well contained 100 μl AIM-V culture medium and 1×10^5 anti-idiotype antibody 6B11-CTLs. Within the last 2 hours during stimulation, 10 μl BrdU labeling solution was added into each well and the fluid in the wells was removed. The cells were dried at 60° C. for 1 hour. 200 μl of FixDenat solution was added into each well. The reaction continued for 30 minutes at 37° C. for fixing DNA in the lymphocytes. Finally, 100 μl BrdU monoclonal antibody was added into each well for 90 minutes. The absorption value at 450 nm was read by an automatic microplate reader after substrate chromogenic reaction for detecting the proliferation of the cells. The group of DCs without loading and the group of phytohaemagglutinin (PHA) were used as negative and positive control respectively. […] Other peptides could not stimulate the proliferation of the reacting cells. […]

[2] = test system: K562 cells; assay: 51Cr release assay, specific CTLs against K562 cells; assay type: cell-based; details: non-specific killing

Row | Sequence | proliferation after blocking by MHC class II antibodies [1] | proliferation of reacting cells 6B11-CTLs [1] | killing of K562 cells by specific CTLs [2]
1 | IALITTKIAWYFDV (VH CDR3 region peptide) [VH CDR3 peptide] | could be blocked mostly | could stimulate the proliferation | could kill
2 | SQSTHFPYT (VL CDR3 region peptide) | could not be blocked | could stimulate the proliferation | could not kill
